In patent US8653048B2 (Sanlugen Pharmatech Ltd., priority 2009, dated 2014):

Assays:
[1] = In vitro stability in simulated intestinal fluid (HPLC); assay type: physicochemical; settings: for stability in simulated intestinal fluid (in words): 0-24 h; for HPLC peak area of drug / Degrade %: simulated intestinal fluid
[2] = tested on: NCI-H460 tumor transplanted in nude mice; assay: NCI-H460 tumor transplanted in nude mice, intravenous administration; settings: for weight loss rate: NCI-H460 nude mice; for effect on NCI-H460 tumor (growth curve and tumor weight), in words: i.v. every three days x4, SL-01 5, 10, 20 mg/Kg, GEM 10 mg/Kg
Procedure: The highest concentrations of both were 10 mg/mL and 240 mg/mL, respectively. […] Assuming that each mouse weighed 20 g and 0.1 mL of drug solution was administered, then the dosage of SL-01 at 5, 10 or 20 mg/kg needed drug concentrations of 1, 2, 4 mg/mL, respectively.
Cell lines and cultivation: the NCI-H460 lung cancer cell line, the HepG2 liver cancer cell line, or the HT29 colon cancer cell line were cultured by adherent culturing in D-MEM (Gibco, Inc.) containing 10% fetal calf serum. These cells were passaged once by a dilution of 1:3 in every 2-3 days. The cells were collected when they were passaged to grow into 25 of 10 cm culture dishes.
3.1 The establishment of a model of transplanted tumors in nude mice: Well-grown NCI-H460 cells, HT29 cells or HepG2 cells were collected (25 of 10 cm culture dishes). The cell concentration was adjusted to 1.5×10^7/mL with serum-free DMEM. 200 μL cell suspension was inoculated into the right back of 6 weeks old male BALB/C nude mice by subcutaneous injection using a 1 mL syringe.
The treatment starting day was the first day (d0). The corresponding drugs were injected intravenously to the tail vein every three days. The administration volume to each mouse was adjusted according to its body weight. A total of four administrations (d0, d3, d6, d9) were applied. The long and short tumor pathlines were measured with a slide caliper at the beginning of the administration and every 3 days thereafter. The tumor volume V was calculated (V=½ab^2, a is the tumor long pathline, b is the tumor short pathline). The growth curve was drawn with the time as the horizontal axis, and tumor volume as the vertical axis. The experiment was terminated when the tumor size of the control group reached 3000 mm^3. Blood samples were taken from the eyeball and thereafter the nude mice were euthanized by back neck vertebra cervical dislocation. The tumor tissues were removed and weighed. The inhibition rate of tumor growth was calculated.

[3] = tested on: SGC7901: a human gastric cancer line; assay: MTT analytical method, SGC7901 cells; assay type: cell-based; settings: SGC-7901, 72 h
Excerpt: (§1) MTT analytical method was used to test the prodrugs for various tumor cells.
(§2) • 1) Cell lines: NCI-H460, A549, LOVO, HT-29, MDA-MB-231, SGC7901, HepG2 or BEL-7402 cell lines. Culture: adherent culturing in D-MEM (Hyclone, Inc.) containing 10% fetal calf serum. The initial cell concentration was about 3×10^5 /mL. The cell was passaged by 1:3 dilution in every 2-3 days. On the day before the test, the cell was passaged by 1:2 dilution, the cell concentration for the test was 5-10×10^5 /mL. • 2) Dissolution and dilution of compounds: according to the weight and molecular weight of the drugs provided, 100-200 μL of DMSO was added. Then normal saline was added to make the final diluted concentration of the drugs be 5 mM (Note that the final concentration of DMSO should not be more than 10%). • 3) D-MEM or RPMI 1640 cell culture medium, Gibco, Inc. • 4) Fetal calf serum Hyclone, Inc. • 5) Cell dissociation buffer, 0.25% Trypsin+0.02% EDTA. • 6) MTT solution, MTT Powder (Sigma) were dissolved in PBS buffer solution to make a solution of 5 mg/mL. The solution was filtered by a 0.22 μm micropore membrane and stored at −20° C. • 7) PBS buffer solution. • 8) 10% acidified SDS, 0.01N HCl. • 9) Centrifuge tubes, haustorial tubes etc. (BD, Inc.); 96-well plates (Costatr, Inc.) Procedures: • 1) Cell inoculation: Cells grown for 24 hours after passage, which cells were in good growth state, were used. The cells were harvested by the routine method. The cell concentration was adjust with a fresh culture solution to 2×10^5/mL (for adherent cells)-3×10^5/mL (for suspension cells). The adherent cells were inoculated at 100 μL/well and then cultivated in an incubator with 5% CO2 at 37° C. for 24 h. Thereafter the used culture solution was removed and 95 μL/well of fresh culture solution was added. The suspension cells were inoculated at 95 μL/well directly. • 2) Drugs treatment: 9 concentration grades were designed for every drug, and every concentration had 3 wells. The control group had 5 wells. The control group was tested simultaneously in each test. The final concentrations of a drug added were […], and 5 μL normal saline was added to the control group. • 3) Cell culture and detection: the cells were cultured in an incubator with 5% CO2 at 37° C. for 72 h after the drug was added, then 10 μL MTT was added to each well and the culture was continued for 4 h. 100 μL of 10% SDS (containing 0.01N HCl) was added to each well. After 24 h, the absorbance (A) of each well was determined by Bio-rad 680 ELISA with the detection wavelength of 570 nm and the reference wavelength of 630 nm. Calculation:
(§3) First, the absorbance (A) of each well was averaged (removing any data with big difference). […] A0 was the mean absorbance of the control wells. The effect curve of the drug concentration was drawn using EXCEL software and the drug concentration for 50% cell survival was calculated according to an appropriate computing methods.

[4] = tested on: LOVO: a human colon cancer cell line; assay: MTT analytical method, LOVO cells; assay type: cell-based; settings: 72 h
Excerpt: as §1, §2, §3

[5] = Metabolism in liver microsomal enzymes (liver S9 fraction); assay type: in vitro ADME, mouse; settings: for HPLC peak area of drug: liver S9 fraction + NADPH, 37° C.; for Degrade %: liver S9 fraction
Procedure: The liver of a mouse was taken out and washed by cold normal saline and dried with filter paper, then cut into small pieces. They were washed 2-3 times with ice cold PBS (pH=7.4) until the elute became colorless or faint yellow. The small pieces of the liver were cut into fragments. Then PBS (pH=7.4) solution in an amount four times of the weight of the liver was added. The liver fragments were homogenated under ice-bath to avoid the down-regulation of enzymatic activity. The homogenated mixture was transferred into a centrifuge tube with stopper and centrifuged for 20 min at 4000 r/min to get the supernatant. Then, the supernatant was centrifuged at 12000 r/min for 20 min to get the supernatant, which was the S9 fraction.
Liver microsomal S9 was mixed with drug solutions. 1800 μL of the mixture in test tube was pre-incubated in a water-bath for 5 min at 37° C. 200 μL of 10 mmol/L NADPH solution was added to start the reaction. The final reaction volume was 2 mL. 200 μL of the incubation solution was taken at 0 min, 10 min, 20 min, 40 min, 1 h, 2 h, 4 h, 6 h, 12 h, respectively. 1 mL of ice cold isopropanol was added into the solution immediately and vortexed for 30 s and kept still for 5 min. 2.5 mL of EtOAc was added and vortexed and centrifuged at 4000 rpm for 15 min. The supernatant was taken and dried by blowing in nitrogen. The dried sample was redissolved in 200 μL HPLC mobile phase solution. 20 μL sample was loaded to the HPLC. The chromatography and peak area were recorded.

[6] = tested on: MDA-MB-231: a human breast cancer line; assay: MTT analytical method, MDA-MB-231 cells; assay type: cell-based; settings: MDA-MB-231, MTT, 72 h
Excerpt: as §1, §2, §3

[7] = Dissolution in water (description of material); assay type: physicochemical; settings: white powder

Row | Structure (SMILES) | stability in simulated intestinal fluid (in words) [1] | HPLC peak area of drug ([1]; 0 min) | HPLC peak area of drug ([1]; 1 h) | HPLC peak area of drug ([1]; 2 h) | HPLC peak area of drug ([1]; 4 h) | HPLC peak area of drug ([1]; 6 h) | HPLC peak area of drug ([1]; 8 h) | HPLC peak area of drug ([1]; 12 h) | HPLC peak area of drug ([1]; 24 h) | effect on NCI-H460 tumor (growth curve and tumor weight), in words [2] | IC50 [3] | IC50 [4] | Degrade % ([5]; 0 min) | Degrade % ([5]; 1 h) | Degrade % ([5]; 2 h) | Degrade % ([5]; 4 h) | Degrade % ([5]; 6 h) | Degrade % ([5]; 12 h) | IC50 [6] | solubility in water, in words [7] | also measured
1 | CCCCCCCCCCCCOC(=O)c1nccnc1C(=O)Nc1ccn([C@@H]2O[C@H](CO)[C@@H](O)C2(F)F)c(=O)n1 [Compound 4, Dodecyl-3-((1-((2R,4R,5R)-3,3-difluoro-4-hydroxy-5-(hydroxymethyl)-tetrahydrofuran-2-yl)-2-oxo-1,2-dihydropyrimidin-4-yl)carbamoyl)pyrazine-2-carboxylate] | stable | 288987.906 | 231129.797 | 196319.828 | 245622.906 | 247957.219 | 239958.297 | 247782.500 | 256782.600 | inhibitory effect | > 16 µM | 16 µM | 0% | 3.74% | 20.71% | 64.02% | 84.96% | 89.57% | > 16 µM | cannot be dissolved in water well | weight loss rate ([2]; SL-01 high dose group 20 mg/Kg i.v.): 7%; HPLC peak area of drug ([5]; 0 min): 179613.3; HPLC peak area of drug ([5]; 1 h): 172893.5; HPLC peak area of drug ([5]; 2 h): 142419.3; HPLC peak area of drug ([5]; 4 h): 64632.59; HPLC peak area of drug ([5]; 6 h): 27009.4; HPLC peak area of drug ([5]; 12 h): 18730.51
2 | Nc1ccn([C@@H]2O[C@H](CO)[C@@H](O)C2(F)F)c(=O)n1 [Gemcitabine, gemcitabine, reference compound] | degraded | 643704.938 | 465528.594 | 410685.313 | 257604.125 | 197106.406 | 149816.906 | 9873.897 | 5571.352 | inhibitory effect | > 16 µM | < 1 µM | 0% | 3.64% | 56.16% | 72.02% | 85.55% | 95.13% | < 1 µM | can be easily dissolved in water | Degrade % ([1]; 0 min): 0%; Degrade % ([1]; 1 h): 27.67%; Degrade % ([1]; 2 h): 36.2%; Degrade % ([1]; 4 h): 59.98%; Degrade % ([1]; 6 h): 69.37%; Degrade % ([1]; 8 h): 76.72%; Degrade % ([1]; 12 h): 98.46%; Degrade % ([1]; 24 h): 99.13%; weight loss rate ([2]; gemcitabine positive control 10 mg/Kg i.v.): 14%
